Results on one compound are retold here after US11932611B1, “3-(5-(3-fluorophenyl)-4-phenyl-4H-1,2,4-triazol-3-ylthio)propanoic acid as an antimicrobial compound” (KING FAISAL UNIVERSITY, priority 2023, dated 2024).

What all share (assay type): cell-based
Test [1] has as its system Chrysosporium keratinophilum. In words: Agar plate disc-diffusion method, antifungal inhibition zone. The note with it: Sabouraud's dextrose agar, 72 h. As for the experimental part: (§1) The agar plate disc-diffusion method was applied. […] The discs were then placed onto the surface of agar plates (nutrient agar for bacteria and Sabouraud's dextrose agar for fungi) seeded with the test organism. Each plate contained 15 mL of the agar medium, previously seeded with 0.2 mL of the broth culture of each organism pregrown for 18 h. The plates were incubated at 37° C. for 48 h, and 72 h for fungi. The inhibition zones was measured in mm. Discs impregnated with DMSO were used as a control, and its inhibition zone was subtracted from the tested compound actual inhibition zone.

In the next test the test system is Aspergillus flavus. Described as above. To be noted: Sabouraud's dextrose agar, 72 h. As to the method:
as §1

The subject of the next test is Staphylococcus aureus. In words: Agar plate disc-diffusion method, antibacterial inhibition zone. To be noted: nutrient agar, 37° C., 48 h. As to the method: as §1
The next test deals with Bacillus cereus. The test is described as above. The note with it: nutrient agar, 37° C., 48 h. As for the experimental part:
as §1

The next test relates to Escherichia coli. Described as above. The note with it: nutrient agar, 37° C., 48 h. As for the experimental part:
as §1

The next test relates to Pseudomonas aeruginosa. Described as above. To be noted: nutrient agar, 37° C., 48 h. As to the method: as §1
The mark [2] stands for this setting: A = concentration of comp. = 10,000 μL.
The mark [3] stands for this setting: B = concentration of comp. = 30,000 μL.
Setting [4] is: C = concentration of comp. = 50,000 μL.

`O=C(O)CCSc1nnc(-c2cccc(F)c2)n1-c1ccccc1` [III, 3-(5-(3-fluorophenyl)-4-phenyl-4H-1,2,4-triazol-3-ylthio)propanoic acid]: in test [1] (setting [2]), the “inhibition zone, Chrysosporium keratinophilum, A” value turned out to be 23 mm. For the same compound, the “inhibition zone, Chrysosporium keratinophilum, B” value in test [1] (setting [3]) is reported as 26 mm. Moreover, the “inhibition zone, Chrysosporium keratinophilum, C” value in test [1] (setting [4]) came to 43 mm. The “inhibition zone, Aspergillus flavus, A” value in the test with Aspergillus flavus (setting [2]) is reported as 19 mm. The “inhibition zone, Aspergillus flavus, B” value in the test with Aspergillus flavus (setting [3]) is reported as 25 mm. In the test on Aspergillus flavus (setting [4]), the “inhibition zone, Aspergillus flavus, C” value amounted to 36 mm. The “inhibition zone, Staphylococcus aureus, A” value in the test on Staphylococcus aureus (setting [2]) stood at 27 mm. Besides, the “inhibition zone, Staphylococcus aureus, B” value in the test on Staphylococcus aureus (setting [3]) is 34 mm. For the same compound, the “inhibition zone, Staphylococcus aureus, C” value in the test on Staphylococcus aureus (setting [4]) is on record as 45 mm. In addition, the “inhibition zone, Bacillus Cereus, A” value with Bacillus cereus (setting [2]) came to 24 mm. For the same compound, the “inhibition zone, Bacillus Cereus, B” value with Bacillus cereus (setting [3]) came out at 27 mm. Further, the “inhibition zone, Bacillus Cereus, C” value with Bacillus cereus (setting [4]) is on record as 38 mm. Also, the “inhibition zone, Escherichia coli, A” value in the test with Escherichia coli (setting [2]) stood at 25 mm. The “inhibition zone, Escherichia coli, B” value in the test with Escherichia coli (setting [3]) is listed as 31 mm. The “inhibition zone, Escherichia coli, C” value in the test with Escherichia coli (setting [4]) is given as 45 mm. For the same compound, the “inhibition zone, Pseudomonas aeruginosa, A” value in the test with Pseudomonas aeruginosa (setting [2]) worked out at 22 mm. For the same compound, the “inhibition zone, Pseudomonas aeruginosa, B” value with Pseudomonas aeruginosa (setting [3]) amounted to 24 mm. Besides, the “inhibition zone, Pseudomonas aeruginosa, C” value in the test with Pseudomonas aeruginosa (setting [4]) is recorded as 41 mm.
